Measurements taken from PubChem BioAssay AID2060485 (Molecular Pharmacology Branch, DTP, NCI, 2025).

Tested on: A375 multi-cell spheroids with HUVEC/MSC, viability
Assay: Anticancer human tumor A375 cell line growth inhibition [GQUAD];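 also: spheroids exposed to compounds for seven days before readout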
Details: for IC50: curve of first compound; for viability, T/C: stronger effect = lower value
In short: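 Tumor cells were grown as complex spheroids with HUVEC endothelial cells and mesenchymal stem cells as stroma. G-quadruplex stabilizers were combined with targeted agents over half-log dilutions from near the clinical Cmax, or from 10 microM.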

[1] = second compound 0.0316 µM, first compound 0.0316 µM
[2] = second compound 0.0316 µM, first compound 0.1 µM
[3] = second compound 0.0316 µM, first compound 0.316 µM
[4] = second compound 0.0316 µM, first compound 1 µM
[5] = second compound 0.0316 µM, first compound 3.16 µM
[6] = second compound 0.0316 µM, first compound 10 µM
[7] = second compound 0.1 µM, first compound 0.0316 µM
[8] = second compound 0.1 µM, first compound 0.1 µM
[9] = second compound 0.1 µM, first compound 0.316 µM
[10] = second compound 0.1 µM, first compound 1 µM
[11] = second compound 0.1 µM, first compound 3.16 µM
[12] = second compound 0.1 µM, first compound 10 µM
[13] = second compound 0.316 µM, first compound 0.0316 µM
[14] = second compound 0.316 µM, first compound 0.1 µM
[15] = second compound 0.316 µM, first compound 0.316 µM
[16] = second compound 0.316 µM, first compound 1 µM
[17] = second compound 0.316 µM, first compound 3.16 µM
[18] = second compound 0.316 µM, first compound 10 µM
[19] = second compound 1 µM, first compound 0.0316 µM
[20] = second compound 1 µM, first compound 0.1 µM
[21] = second compound 1 µM, first compound 0.316 µM
[22] = second compound 1 µM, first compound 1 µM
[23] = second compound 1 µM, first compound 3.16 µM
[24] = second compound 1 µM, first compound 10 µM
[25] = second compound 3.16 µM, first compound 0.0316 µM
[26] = second compound 3.16 µM, first compound 0.1 µM
[27] = second compound 3.16 µM, first compound 0.316 µM
[28] = second compound 3.16 µM, first compound 1 µM
[29] = second compound 3.16 µM, first compound 3.16 µM
[30] = second compound 3.16 µM, first compound 10 µM
[31] = second compound 10 µM, first compound 0.0316 µM
[32] = second compound 10 µM, first compound 0.1 µM
[33] = second compound 10 µM, first compound 0.316 µM
[34] = second compound 10 µM, first compound 1 µM
[35] = second compound 10 µM, first compound 3.16 µM
[36] = second compound 10 µM, first compound 10 µM

COc1cccc2c1C(=O)c1c(O)c3c(c(O)c1C2=O)CC(O)(C(=O)CO)CC3OC1CC(N)C(O)C(C)O1 (stereo unspecified) + CN(C)c1ccc(Nc2c3ccc(NC(=O)CCN4CCCC4)cc3nc3cc(NC(=O)CCN4CCCC4)ccc23)cc1
IC50 (second compound 0.0316 µM): 196 nM | IC50 (second compound 0.1 µM): 214 nM | IC50 (second compound 0.316 µM): 217 nM | IC50 (second compound 1 µM): 222 nM | IC50 (second compound 3.16 µM): 229 nM | IC50 (second compound 10 µM): 233 nM | viability, T/C [1]: 107% | viability, T/C [2]: 70.2% | viability, T/C [3]: 34% | viability, T/C [4]: 18.7% | viability, T/C [5]: 2.21% | viability, T/C [6]: 0.12% | viability, T/C [7]: 105% | viability, T/C [8]: 75.2% | viability, T/C [9]: 34.6% | viability, T/C [10]: 18.5% | viability, T/C [11]: 2.59% | viability, T/C [12]: 0.11% | viability, T/C [13]: 110% | viability, T/C [14]: 79.7% | viability, T/C [15]: 32.2% | viability, T/C [16]: 18.3% | viability, T/C [17]: 2.01% | viability, T/C [18]: 0.1% | viability, T/C [19]: 107% | viability, T/C [20]: 80.7% | viability, T/C [21]: 33.2% | viability, T/C [22]: 17.7% | viability, T/C [23]: 2.55% | viability, T/C [24]: 0.13% | viability, T/C [25]: 112% | viability, T/C [26]: 82% | viability, T/C [27]: 34.2% | viability, T/C [28]: 18.6% | viability, T/C [29]: 2.88% | viability, T/C [30]: 0.15% | viability, T/C [31]: 103% | viability, T/C [32]: 77.5% | viability, T/C [33]: 38.3% | viability, T/C [34]: 17.9% | viability, T/C [35]: 4.36% | viability, T/C [36]: 0.25%

Cc1cccc(N(C)C(=O)C2C(O)CCN2c2nc(C)cc(C(F)(F)F)c2C#N)c1 (stereo unspecified) + CN(C)c1ccc(Nc2c3ccc(NC(=O)CCN4CCCC4)cc3nc3cc(NC(=O)CCN4CCCC4)ccc23)cc1
IC50 (second compound 0.0316 µM): > 10000 nM | IC50 (second compound 0.1 µM): > 10000 nM | IC50 (second compound 0.316 µM): > 10000 nM | IC50 (second compound 1 µM): > 10000 nM | IC50 (second compound 3.16 µM): > 10000 nM | IC50 (second compound 10 µM): > 10000 nM | viability, T/C [1]: 103% | viability, T/C [2]: 98.6% | viability, T/C [3]: 104% | viability, T/C [4]: 105% | viability, T/C [5]: 105% | viability, T/C [6]: 102% | viability, T/C [7]: 113% | viability, T/C [8]: 104% | viability, T/C [9]: 99.8% | viability, T/C [10]: 97% | viability, T/C [11]: 107% | viability, T/C [12]: 102% | viability, T/C [13]: 113% | viability, T/C [14]: 101% | viability, T/C [15]: 101% | viability, T/C [16]: 109% | viability, T/C [17]: 99.1% | viability, T/C [18]: 95.7% | viability, T/C [19]: 107% | viability, T/C [20]: 98.3% | viability, T/C [21]: 97.3% | viability, T/C [22]: 96.9% | viability, T/C [23]: 104% | viability, T/C [24]: 97.3% | viability, T/C [25]: 117% | viability, T/C [26]: 106% | viability, T/C [27]: 93.9% | viability, T/C [28]: 101% | viability, T/C [29]: 98% | viability, T/C [30]: 100% | viability, T/C [31]: 95.7% | viability, T/C [32]: 96.3% | viability, T/C [33]: 89.9% | viability, T/C [34]: 93.7% | viability, T/C [35]: 96.5% | viability, T/C [36]: 74.3%

Cn1ncnc1[C@H]1c2n[nH]c(=O)c3cc(F)cc(c23)N[C@@H]1c1ccc(F)cc1 + CN(C)c1ccc(Nc2c3ccc(NC(=O)CCN4CCCC4)cc3nc3cc(NC(=O)CCN4CCCC4)ccc23)cc1
IC50 (second compound 0.0316 µM): > 316 nM | IC50 (second compound 0.1 µM): > 316 nM | IC50 (second compound 0.316 µM): > 316 nM | IC50 (second compound 1 µM): > 316 nM | IC50 (second compound 3.16 µM): > 316 nM | IC50 (second compound 10 µM): > 316 nM | viability, T/C (second compound 0.0316 µM, first compound 0.000999 µM): 96.8% | viability, T/C (second compound 0.0316 µM, first compound 0.00316 µM): 104% | viability, T/C (second compound 0.0316 µM, first compound 0.00999 µM): 105% | viability, T/C [1]: 104% | viability, T/C (second compound 0.0316 µM, first compound 0.0999 µM): 105% | viability, T/C [3]: 97.1% | viability, T/C (second compound 0.1 µM, first compound 0.000999 µM): 102% | viability, T/C (second compound 0.1 µM, first compound 0.00316 µM): 102% | viability, T/C (second compound 0.1 µM, first compound 0.00999 µM): 97.2% | viability, T/C [7]: 101% | viability, T/C (second compound 0.1 µM, first compound 0.0999 µM): 103% | viability, T/C [9]: 84.7% | viability, T/C (second compound 0.316 µM, first compound 0.000999 µM): 115% | viability, T/C (second compound 0.316 µM, first compound 0.00316 µM): 93.6% | viability, T/C (second compound 0.316 µM, first compound 0.00999 µM): 101% | viability, T/C [13]: 110% | viability, T/C (second compound 0.316 µM, first compound 0.0999 µM): 107% | viability, T/C [15]: 98.8% | viability, T/C (second compound 1 µM, first compound 0.000999 µM): 111% | viability, T/C (second compound 1 µM, first compound 0.00316 µM): 105% | viability, T/C (second compound 1 µM, first compound 0.00999 µM): 101% | viability, T/C [19]: 110% | viability, T/C (second compound 1 µM, first compound 0.0999 µM): 116% | viability, T/C [21]: 110% | viability, T/C (second compound 3.16 µM, first compound 0.000999 µM): 107% | viability, T/C (second compound 3.16 µM, first compound 0.00316 µM): 98% | viability, T/C (second compound 3.16 µM, first compound 0.00999 µM): 99.8% | viability, T/C [25]: 105% | viability, T/C (second compound 3.16 µM, first compound 0.0999 µM): 106% | viability, T/C [27]: 106% | viability, T/C (second compound 10 µM, first compound 0.000999 µM): 98.3% | viability, T/C (second compound 10 µM, first compound 0.00316 µM): 97.5% | viability, T/C (second compound 10 µM, first compound 0.00999 µM): 97.1% | viability, T/C [31]: 107% | viability, T/C (second compound 10 µM, first compound 0.0999 µM): 104% | viability, T/C [33]: 97.9%
